According to patent US20090099237A1, “Methods of treating inflammatory diseases” (Roche Palo Alto LLC, priority 2007, published 2009):

How the values were obtained:
Test in all cases: KinomeScan kinase profiling
Assay type in all cases: binding
Details in all cases: 10 μM
PAK6 = PAK6 (Homo sapiens, UniProt Q9NQU5)
From the text: (§1) The selectivity of a given CK1α, CK1α-CK1δ, CK1α-CK1ε or CK1α-CK1δ-CK1ε inhibitor compound can be determined by testing the compound against a panel of known kinases. An example of such a kinase profiling technology is the “KinomeScan” from Ambit Biosciences in which compounds can be screened for their modulatory activities against more than 200 known kinases.

VEGFR2 = biological target: T1, VEGFR2 (Homo sapiens, UniProt P35968)
T1 construct: purchased Ambit Biosciences
From the text: as §1

LTK = LTK (Homo sapiens, UniProt P29376)
From the text: as §1

JNK1 = biological target: T2, JNK1 (Homo sapiens, UniProt P45983)
T2 construct: purchased Ambit Biosciences
From the text: as §1

FLT3 = biological target: T3, FLT3 (Homo sapiens, UniProt P36888)
T3 construct: purchased Ambit Biosciences
From the text: as §1

DAPK3 = biological target: T4, DAPK3 (Homo sapiens, UniProt O43293)
T4 construct: purchased Ambit Biosciences (San Diego, Calif.)
T4 sequence (O43293 whole entry): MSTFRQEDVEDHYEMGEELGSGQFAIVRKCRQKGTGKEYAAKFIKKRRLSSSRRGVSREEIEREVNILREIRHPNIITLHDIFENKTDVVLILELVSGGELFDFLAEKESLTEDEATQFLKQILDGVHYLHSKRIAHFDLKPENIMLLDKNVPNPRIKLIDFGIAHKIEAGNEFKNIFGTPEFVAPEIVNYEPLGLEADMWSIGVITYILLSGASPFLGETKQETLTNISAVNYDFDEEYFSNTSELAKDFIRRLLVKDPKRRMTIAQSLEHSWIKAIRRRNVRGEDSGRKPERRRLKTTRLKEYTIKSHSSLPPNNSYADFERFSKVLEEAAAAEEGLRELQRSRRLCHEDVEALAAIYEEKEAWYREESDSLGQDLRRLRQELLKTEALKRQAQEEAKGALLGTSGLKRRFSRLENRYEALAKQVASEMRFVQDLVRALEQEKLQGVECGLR
From the text: as §1

BIKE = biological target: T5, BIKE (Homo sapiens, UniProt Q9NSY1)
T5 construct: purchased Ambit Biosciences
From the text: as §1

RIPK2 = biological target: T6, RIPK2 (Homo sapiens, UniProt O43353)
T6 construct: purchased Ambit Biosciences
From the text: as §1

NEK2 = NEK2 (Homo sapiens, UniProt P51955)
From the text: as §1

JAK1(Kin.Dom1) = biological target: T7, JAK1(Kin.Dom1) (Homo sapiens, UniProt P23458)
T7 construct: JAK1(Kin.Dom1); purchased Ambit Biosciences
T7 sequence (P23458 583-855 limits assumed): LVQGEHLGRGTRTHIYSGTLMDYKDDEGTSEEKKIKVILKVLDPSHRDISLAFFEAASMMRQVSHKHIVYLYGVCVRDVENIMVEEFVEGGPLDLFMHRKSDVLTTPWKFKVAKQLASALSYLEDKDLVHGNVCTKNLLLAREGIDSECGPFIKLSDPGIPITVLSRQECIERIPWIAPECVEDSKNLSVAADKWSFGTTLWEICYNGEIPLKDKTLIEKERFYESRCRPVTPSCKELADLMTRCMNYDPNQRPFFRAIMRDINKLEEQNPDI
From the text: as §1

EPHA7 = biological target: T8, EPHA7 (Homo sapiens, UniProt Q15375)
T8 construct: purchased Ambit Biosciences (San Diego, Calif.)
From the text: as §1

NEK6 = NEK6 (Homo sapiens, UniProt Q9HC98)
From the text: as §1

CSNK2A1 = biological target: T9, CSNK2A1 (Homo sapiens, UniProt P68400)
T9 construct: purchased Ambit Biosciences (San Diego, Calif.)
From the text: as §1

HCK = biological target: T10, HCK (Homo sapiens, UniProt P08631)
T10 construct: purchased Ambit Biosciences
From the text: as §1

EPHA4 = biological target: T11, EPHA4 (Homo sapiens, UniProt P54764)
T11 construct: purchased Ambit Biosciences (San Diego, Calif.)
From the text: as §1

CSNK1G2 = biological target: T12, CSNK1G2 (Homo sapiens, UniProt P78368)
T12 construct: purchased Ambit Biosciences (San Diego, Calif.)
T12 sequence (P78368 whole entry): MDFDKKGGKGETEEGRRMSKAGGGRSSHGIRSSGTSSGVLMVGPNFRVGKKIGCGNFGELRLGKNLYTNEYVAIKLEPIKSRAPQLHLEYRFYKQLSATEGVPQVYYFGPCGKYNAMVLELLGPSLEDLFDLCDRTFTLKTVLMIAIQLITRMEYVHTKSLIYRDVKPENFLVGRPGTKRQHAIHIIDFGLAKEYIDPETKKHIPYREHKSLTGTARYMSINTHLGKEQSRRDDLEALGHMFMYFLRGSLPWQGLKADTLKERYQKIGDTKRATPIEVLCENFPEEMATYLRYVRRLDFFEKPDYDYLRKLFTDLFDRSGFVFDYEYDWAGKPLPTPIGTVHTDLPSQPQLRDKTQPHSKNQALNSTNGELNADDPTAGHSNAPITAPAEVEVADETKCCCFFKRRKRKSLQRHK
From the text: as §1

PKMYT1 = biological target: T13, PKMYT1 (Homo sapiens, UniProt Q99640)
T13 construct: purchased Ambit Biosciences
From the text: as §1

EPHA5 = biological target: T14, EPHA5 (Homo sapiens, UniProt P54756)
T14 construct: purchased Ambit Biosciences (San Diego, Calif.)
From the text: as §1

CSNK1G1 = biological target: T15, CSNK1G1 (Homo sapiens, UniProt Q9HCP0)
T15 construct: purchased Ambit Biosciences (San Diego, Calif.)
T15 sequence (Q9HCP0 whole entry): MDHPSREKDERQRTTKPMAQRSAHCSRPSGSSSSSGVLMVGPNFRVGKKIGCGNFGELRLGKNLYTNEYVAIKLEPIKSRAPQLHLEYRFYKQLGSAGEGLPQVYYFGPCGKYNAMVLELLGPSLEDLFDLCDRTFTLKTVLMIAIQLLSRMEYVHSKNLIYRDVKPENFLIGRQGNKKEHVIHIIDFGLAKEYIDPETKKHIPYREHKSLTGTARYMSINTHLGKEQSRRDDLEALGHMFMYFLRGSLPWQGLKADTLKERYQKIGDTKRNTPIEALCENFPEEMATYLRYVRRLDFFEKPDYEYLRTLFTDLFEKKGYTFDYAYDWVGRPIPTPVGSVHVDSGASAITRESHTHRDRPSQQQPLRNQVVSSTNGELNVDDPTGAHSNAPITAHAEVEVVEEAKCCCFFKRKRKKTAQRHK
From the text: as §1

FES = biological target: T16, FES (Homo sapiens, UniProt P07332)
T16 construct: purchased Ambit Biosciences
From the text: as §1

ABL1 = biological target: T17, ABL1 (Homo sapiens, UniProt P00519)
T17 construct: purchased Ambit Biosciences
From the text: as §1

MKNK2 = MKNK2 (Homo sapiens, UniProt Q9HBH9)
From the text: as §1

AURKC = biological target: T18, AURKC (Homo sapiens, UniProt Q9UQB9)
T18 construct: purchased Ambit Biosciences
From the text: as §1

INSR = biological target: T19, INSR (Homo sapiens, UniProt P06213)
T19 construct: purchased Ambit Biosciences
From the text: as §1

TNIK = biological target: T20, TNIK (Homo sapiens, UniProt Q9UKE5)
T20 construct: purchased Ambit Biosciences
From the text: as §1

PAK7/PAK5 = PAK7/PAK5 (Homo sapiens, UniProt Q9P286)
From the text: as §1

EGFR = biological target: T21, EGFR (Homo sapiens, UniProt P00533)
T21 construct: purchased Ambit Biosciences (San Diego, Calif.)
From the text: as §1

MARK2 = MARK2 (Homo sapiens, UniProt Q7KZI7)
From the text: as §1

EPHB1 = biological target: T22, EPHB1 (Homo sapiens, UniProt P54762)
T22 construct: purchased Ambit Biosciences (San Diego, Calif.)
T22 sequence (P54762 18-984): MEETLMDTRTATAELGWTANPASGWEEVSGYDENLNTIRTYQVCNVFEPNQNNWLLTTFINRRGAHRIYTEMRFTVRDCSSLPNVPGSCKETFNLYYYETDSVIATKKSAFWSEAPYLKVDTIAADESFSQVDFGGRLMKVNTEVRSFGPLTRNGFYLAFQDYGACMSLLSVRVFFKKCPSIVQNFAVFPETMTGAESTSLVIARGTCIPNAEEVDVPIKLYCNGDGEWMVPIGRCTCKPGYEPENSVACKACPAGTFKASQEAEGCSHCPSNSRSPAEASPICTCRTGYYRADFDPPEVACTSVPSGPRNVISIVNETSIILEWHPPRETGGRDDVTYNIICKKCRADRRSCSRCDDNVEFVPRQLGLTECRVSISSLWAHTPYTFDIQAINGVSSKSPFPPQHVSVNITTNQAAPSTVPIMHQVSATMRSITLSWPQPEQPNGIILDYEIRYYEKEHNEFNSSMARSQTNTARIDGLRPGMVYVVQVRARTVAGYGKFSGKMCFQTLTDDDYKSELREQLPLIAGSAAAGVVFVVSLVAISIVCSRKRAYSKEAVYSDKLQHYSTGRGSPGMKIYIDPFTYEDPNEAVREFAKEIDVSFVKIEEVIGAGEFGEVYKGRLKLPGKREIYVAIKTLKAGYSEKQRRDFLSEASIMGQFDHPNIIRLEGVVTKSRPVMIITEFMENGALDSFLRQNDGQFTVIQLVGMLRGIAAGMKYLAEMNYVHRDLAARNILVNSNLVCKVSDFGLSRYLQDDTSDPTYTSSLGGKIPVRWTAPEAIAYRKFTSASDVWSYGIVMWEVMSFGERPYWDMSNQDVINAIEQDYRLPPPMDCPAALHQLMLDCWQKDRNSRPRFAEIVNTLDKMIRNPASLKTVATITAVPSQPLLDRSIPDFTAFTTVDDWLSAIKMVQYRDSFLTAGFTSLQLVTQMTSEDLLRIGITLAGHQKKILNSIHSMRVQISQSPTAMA
From the text: as §1

SYK = biological target: T23, SYK (Homo sapiens, UniProt P43405)
T23 construct: purchased Ambit Biosciences
From the text: as §1

TXK = biological target: T24, TXK (Homo sapiens, UniProt P42681)
T24 construct: purchased Ambit Biosciences
T24 sequence (P42681 whole entry): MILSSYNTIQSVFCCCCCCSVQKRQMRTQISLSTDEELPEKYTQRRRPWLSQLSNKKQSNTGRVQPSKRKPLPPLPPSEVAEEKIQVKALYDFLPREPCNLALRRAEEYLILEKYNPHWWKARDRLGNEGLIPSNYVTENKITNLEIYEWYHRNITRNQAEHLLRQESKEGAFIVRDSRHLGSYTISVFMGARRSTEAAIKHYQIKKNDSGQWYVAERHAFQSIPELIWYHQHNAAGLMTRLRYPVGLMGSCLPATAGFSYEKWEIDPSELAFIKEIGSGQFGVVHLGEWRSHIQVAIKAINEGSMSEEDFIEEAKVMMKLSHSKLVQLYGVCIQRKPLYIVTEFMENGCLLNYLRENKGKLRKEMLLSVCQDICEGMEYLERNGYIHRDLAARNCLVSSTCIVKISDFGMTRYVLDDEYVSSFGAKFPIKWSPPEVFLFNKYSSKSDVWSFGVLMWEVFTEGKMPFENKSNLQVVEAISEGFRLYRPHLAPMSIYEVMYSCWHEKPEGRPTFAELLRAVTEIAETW
From the text: as §1

YES = biological target: T25, YES (Homo sapiens, UniProt P07947)
T25 construct: purchased Ambit Biosciences
T25 sequence (P07947 whole entry): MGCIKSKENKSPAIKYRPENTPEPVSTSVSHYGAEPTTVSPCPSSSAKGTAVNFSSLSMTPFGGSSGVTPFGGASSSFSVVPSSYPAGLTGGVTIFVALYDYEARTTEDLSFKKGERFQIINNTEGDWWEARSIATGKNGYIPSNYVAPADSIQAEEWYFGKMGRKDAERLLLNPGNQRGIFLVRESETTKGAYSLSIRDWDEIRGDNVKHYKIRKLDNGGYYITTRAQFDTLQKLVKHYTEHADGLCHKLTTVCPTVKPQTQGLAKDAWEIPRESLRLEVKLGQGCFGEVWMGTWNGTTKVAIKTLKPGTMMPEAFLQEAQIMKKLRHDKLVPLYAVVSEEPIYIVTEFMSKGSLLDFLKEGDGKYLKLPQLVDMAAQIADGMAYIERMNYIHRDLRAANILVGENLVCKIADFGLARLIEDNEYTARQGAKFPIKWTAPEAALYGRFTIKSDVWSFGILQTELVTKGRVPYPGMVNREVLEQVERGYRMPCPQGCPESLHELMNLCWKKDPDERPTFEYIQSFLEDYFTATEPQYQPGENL
From the text: as §1

CSK = biological target: T26, CSK (Homo sapiens, UniProt P41240)
T26 construct: purchased Ambit Biosciences (San Diego, Calif.)
T26 sequence (P41240 whole entry): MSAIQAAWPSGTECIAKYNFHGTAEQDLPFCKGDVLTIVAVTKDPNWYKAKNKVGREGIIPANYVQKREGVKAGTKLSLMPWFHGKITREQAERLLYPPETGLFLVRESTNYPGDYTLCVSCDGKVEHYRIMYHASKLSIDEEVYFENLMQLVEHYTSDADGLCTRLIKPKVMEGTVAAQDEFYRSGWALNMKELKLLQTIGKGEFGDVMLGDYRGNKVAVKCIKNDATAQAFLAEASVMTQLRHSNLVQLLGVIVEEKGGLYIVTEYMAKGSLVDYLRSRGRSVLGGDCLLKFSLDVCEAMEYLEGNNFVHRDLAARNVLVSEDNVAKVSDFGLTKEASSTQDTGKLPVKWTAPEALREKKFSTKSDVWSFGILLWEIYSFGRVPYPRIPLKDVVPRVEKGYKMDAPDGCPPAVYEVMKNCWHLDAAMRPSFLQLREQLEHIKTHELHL
From the text: as §1

IGF1R = biological target: T27, IGF1R (Homo sapiens, UniProt P08069)
T27 construct: purchased Ambit Biosciences
From the text: as §1

TIE2 = biological target: T28, TIE2 (Homo sapiens, UniProt Q02763)
T28 construct: purchased Ambit Biosciences
From the text: as §1

CAMK2G = biological target: T29, CAMK2G (Homo sapiens, UniProt Q13555)
T29 construct: purchased Ambit Biosciences
From the text: as §1

STK17A = biological target: T30, STK17A (Homo sapiens, UniProt Q9UEE5)
T30 construct: purchased Ambit Biosciences
From the text: as §1

PDGFRB = PDGFRB (Homo sapiens, UniProt P09619)
From the text: as §1

PLK4 = biological target: T31, PLK4 (Homo sapiens, UniProt O00444)
T31 construct: purchased Ambit Biosciences
T31 sequence (O00444 whole entry): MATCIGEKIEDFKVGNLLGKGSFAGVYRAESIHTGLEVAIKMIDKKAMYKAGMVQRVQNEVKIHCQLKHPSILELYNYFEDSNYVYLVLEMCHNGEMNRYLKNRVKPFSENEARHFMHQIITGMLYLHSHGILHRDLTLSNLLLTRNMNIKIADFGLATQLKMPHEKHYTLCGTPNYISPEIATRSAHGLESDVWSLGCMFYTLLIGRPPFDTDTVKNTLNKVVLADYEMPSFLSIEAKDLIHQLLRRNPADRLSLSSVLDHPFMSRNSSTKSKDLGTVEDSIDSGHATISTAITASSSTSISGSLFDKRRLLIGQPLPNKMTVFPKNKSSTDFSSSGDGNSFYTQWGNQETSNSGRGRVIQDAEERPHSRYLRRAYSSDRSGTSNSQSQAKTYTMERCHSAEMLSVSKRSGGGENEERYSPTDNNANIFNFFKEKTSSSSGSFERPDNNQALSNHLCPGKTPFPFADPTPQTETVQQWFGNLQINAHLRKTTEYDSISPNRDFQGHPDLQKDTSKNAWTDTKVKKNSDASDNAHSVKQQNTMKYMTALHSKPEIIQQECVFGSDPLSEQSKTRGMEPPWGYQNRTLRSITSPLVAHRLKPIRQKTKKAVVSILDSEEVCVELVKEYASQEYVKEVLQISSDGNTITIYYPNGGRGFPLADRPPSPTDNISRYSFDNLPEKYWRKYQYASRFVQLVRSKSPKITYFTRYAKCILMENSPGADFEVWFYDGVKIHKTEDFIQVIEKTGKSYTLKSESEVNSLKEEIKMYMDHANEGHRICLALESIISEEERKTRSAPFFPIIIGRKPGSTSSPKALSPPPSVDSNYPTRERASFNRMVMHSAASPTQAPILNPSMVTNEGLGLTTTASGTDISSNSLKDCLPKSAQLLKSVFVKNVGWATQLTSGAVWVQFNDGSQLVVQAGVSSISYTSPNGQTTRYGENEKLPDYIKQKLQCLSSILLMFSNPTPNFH
From the text: as §1

| Compound | % Binding (PAK6) [%] | % Binding (VEGFR2) [%] | % Binding (LTK) [%] | % Binding (JNK1) [%] | % Binding (FLT3) [%] | % Binding (DAPK3) [%] | % Binding (BIKE) [%] | % Binding (RIPK2) [%] | % Binding (NEK2) [%] | % Binding (JAK1(Kin.Dom1)) [%] | % Binding (EPHA7) [%] | % Binding (NEK6) [%] | % Binding (CSNK2A1) [%] | % Binding (HCK) [%] | % Binding (EPHA4) [%] | % Binding (CSNK1G2) [%] | % Binding (PKMYT1) [%] | % Binding (EPHA5) [%] | % Binding (CSNK1G1) [%] | % Binding (FES) [%] | other results |
| --- | --- | --- | --- | --- | --- | --- | --- | --- | --- | --- | --- | --- | --- | --- | --- | --- | --- | --- | --- | --- | --- |
| COc1cc(OC)c(C=C2C(O)=Nc3ccccc32)c(OC)c1 [IC261, 3-[(2,4,6-trimethoxyphenyl)methylidenyl]-indolin-2-one] | <50 | <50 | <50 | <50 | <50 | <50 | <50 | <50 | <50 | <50 | <50 | <50 | <50 | <50 | <50 | <50 | <50 | <50 | <50 | <50 | % Binding (ABL1): <50%; % Binding (MKNK2): <50%; % Binding (AURKC): <50%; % Binding (INSR): <50%; % Binding (TNIK): <50%; % Binding (PAK7/PAK5): <50%; % Binding (EGFR): <50%; % Binding (MARK2): <50%; % Binding (EPHB1): <50%; % Binding (SYK): <50%; % Binding (TXK): <50%; % Binding (YES): <50%; % Binding (CSK): <50%; % Binding (IGF1R): <50%; % Binding (TIE2): <50%; % Binding (CAMK2G): <50%; % Binding (STK17A): <50%; % Binding (PDGFRB): <50%; % Binding (PLK4): <50% |
| NC(=O)c1cc(-c2ccncc2)c[nH]1 [Compound A, 4-Pyridin-4-yl-1H-pyrrole-2-carboxylic acid amide] | <50 | <50 | <50 | <50 | <50 | 74 | <50 | <50 | <50 | <50 | <50 | <50 | <50 | <50 | <50 | 76 | <50 | <50 | <50 | <50 | % Binding (ABL1): <50%; % Binding (MKNK2): <50%; % Binding (AURKC): <50%; % Binding (INSR): <50%; % Binding (TNIK): <50%; % Binding (PAK7/PAK5): <50%; % Binding (EGFR): <50%; % Binding (MARK2): <50%; % Binding (EPHB1): <50%; % Binding (SYK): <50%; % Binding (TXK): <50%; % Binding (YES): <50%; % Binding (CSK): <50%; % Binding (IGF1R): <50%; % Binding (TIE2): <50%; % Binding (CAMK2G): <50%; % Binding (STK17A): 98%; % Binding (PDGFRB): <50%; % Binding (PLK4): <50% |
